Results as given in PubChem BioAssay (NCI).
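Protocol summary: plate cells (96-well), add compound at 5 concentrations, incubate 48 h, interpolate endpoints linearly. The concentration for full growth arrest is given as TGI.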

Legend:
Test in all cases: DTP human tumour cell line panel, 48 h
[1] = system: CCRF-CEM leukemia
[2] = system: HOP-62 NSCLC
[3] = system: MDA-MB-231 breast
[4] = system: RXF 393 renal
[5] = system: SF-268 CNS
[6] = system: SW-620 colon
[7] = system: TK-10 renal
[8] = system: SN12C renal
[9] = system: MOLT-4 leukemia
[10] = system: SF-539 CNS

Row | SMILES | TGI [1] | TGI [2] | TGI [3] | TGI [4] | TGI [5] | TGI [6] | TGI [7] | TGI [8] | TGI [9] | TGI [10]
1 | O=C1c2cc([N+](=O)[O-])sc2C(=O)c2ccsc21 | 0.227 µM | 0.486 µM | 1.15 µM | 1.05 µM | 1.06 µM | 0.779 µM | 1.99 µM | 1.33 µM | 0.456 µM | 0.938 µM
2 | CN(C)CCNc1nc2c(no[n+]2[O-])c2ccccc12 | > 100 µM | 34.9 µM | 34.3 µM | 38.6 µM | > 100 µM | 46 µM | 63.1 µM | > 100 µM | 95.8 µM | 27.6 µM
3 | CC(=O)N(CN1C(=O)CCC1C(=O)O)c1ccccc1Cl (stereo not given) | > 100 µM | > 100 µM | > 100 µM | > 100 µM | > 100 µM | > 100 µM | > 100 µM | > 100 µM | > 100 µM | > 100 µM
4 | OCC(O)C(O)C(O)C(O)/C=N/Nc1nc(O)c(/C=C2\C=Nc3ccccc32)[nH]1 (stereo not given) | > 100 µM | > 100 µM | > 100 µM | > 100 µM | > 100 µM | > 100 µM | > 100 µM | > 100 µM | > 100 µM | > 100 µM
5 | O=S(=O)(/N=C(\NO)Nc1ccc(Cl)cc1)c1ccc(-c2ccccn2)s1 | > 100 µM | > 100 µM | > 100 µM | 94.4 µM | > 100 µM | > 100 µM | > 100 µM | 72.9 µM | > 100 µM | > 100 µM
6 | OC(CN1CCCCC1)c1ccc(/C=C/c2ccc(Cl)cc2)cc1 (stereo not given) | > 100 µM | > 100 µM | > 100 µM | > 100 µM | > 100 µM | > 100 µM | > 100 µM | > 100 µM | > 100 µM | > 100 µM
7 | COP(C)(=O)C(Cc1c[nH]c2ccccc12)NC(=O)OCc1ccccc1 (stereo not given) | > 100 µM | > 100 µM | > 100 µM | > 100 µM | > 100 µM | > 100 µM | > 100 µM | > 100 µM | > 100 µM | > 100 µM
8 | O=[N+]([O-])c1ccc2ncccc2c1CCc1c([N+](=O)[O-])ccc2ncccc12 | > 100 µM | > 100 µM | > 100 µM | > 100 µM | > 100 µM | > 100 µM | > 100 µM | > 100 µM | > 100 µM | > 100 µM
9 | CC(=O)OCC1OC(N2C(S)=C(C#N)C(c3ccco3)C(C(C)=O)=C2c2ccccc2)C(OC(C)=O)C(OC(C)=O)C1OC(C)=O (stereo not given) | > 100 µM | 45.1 µM | > 100 µM | > 100 µM | > 100 µM | > 100 µM | > 100 µM | > 100 µM | > 100 µM | > 100 µM
10 | CC1CN=C(c2ccc(COc3ccc(C4=NCC(C)N4)cc3)cc2)N1 (stereo not given) | > 100 µM | > 100 µM | > 100 µM | > 100 µM | > 100 µM | > 100 µM | > 100 µM | > 100 µM | > 100 µM | > 100 µM
11 | CCCCCCCCCCCCCCCCP(=O)([O-])OCC[N+](C)(C)C | 24.7 µM | 31 µM | 35.2 µM | 15 µM | 34.1 µM | 29.7 µM | 3.51 µM | 26.2 µM | 33.4 µM | 39.8 µM
12 | COc1ccccc1N=C1SCCN1C(=S)Nc1ccc(S(=O)(=O)/N=C/N(C)C)cc1 | > 100 µM | > 100 µM | > 100 µM | 45.8 µM | 55.2 µM | > 100 µM | > 100 µM | > 100 µM | > 100 µM | > 100 µM
13 | C[N+](C)(N)c1nc(N)c(C#N)c(C#N)c1C#N | > 10 µM | > 10 µM | > 10 µM | > 10 µM | > 10 µM | > 10 µM | > 10 µM | > 10 µM | > 10 µM | > 10 µM
14 | C=CC1(c2ccc(OC)cc2)OCCCO1 | > 100 µM | > 100 µM | > 100 µM | > 100 µM | > 100 µM | > 100 µM | > 100 µM | > 100 µM | > 100 µM | > 100 µM
15 | COC(=O)[C@H](CCSC)NC(=O)c1ccc(CNC(=O)/C(C)=C/c2ccccc2)cc1 | > 100 µM | 52.3 µM | > 100 µM | 51.1 µM | 70.1 µM | > 100 µM | > 100 µM | > 100 µM | > 100 µM | 61.2 µM
16 | CC(/C=N/NC1=NCCCN1)=N\NC1=NCCCN1 | > 100 µM | > 100 µM | > 100 µM | > 100 µM | > 100 µM | > 100 µM | > 100 µM | > 100 µM | > 100 µM | > 100 µM
17 | CCN(CC)CCC(=O)c1ccc(Oc2ccc(F)cc2)cc1 | 50.1 µM | 56.6 µM | 31.2 µM | 30.5 µM | 35.5 µM | 32.7 µM | 31.7 µM | 32.1 µM | 51.3 µM | 31.8 µM
18 | COc1ccc(C[C@@H]2OC3(C=CC(=O)C=C3)O[C@H]2Cc2ccc(OC)cc2)cc1 | 0.521 µM | 3.59 µM | 4.15 µM | 0.79 µM | 3.07 µM | 0.383 µM | 1.21 µM | 3.16 µM | 2.01 µM | 2.63 µM
19 | Cc1nc2c(=O)[nH]c3ccc(Cl)cc3c2o1 | > 100 µM | > 100 µM | > 100 µM | > 100 µM | > 100 µM | > 100 µM | > 100 µM | > 100 µM | > 100 µM | > 100 µM
20 | C=CC(Br)(CBr)CCC(Br)C(C)C (stereo not given) | 3.46 µM | 9.71 µM | 10.3 µM | 20.3 µM | 25.7 µM | 5.38 µM | 10.4 µM | 27.2 µM | 5.21 µM | 6.02 µM
